Experimental data published in patent US20260272868A1 (priority 2022, published 2026).
Where “and” joins values, the source holds several entries; their conditions need not be identical. Equal values may be shown once. Read-outs that look alike come from different tables or passages of the source.

Assays:
5-HT2A receptor = target: T1, 5-HT2A receptor (Homo sapiens, UniProt P28223); conditions: cited from earlier work
T1 construct: (~mg per ~70 kg human, route); host or cells: human subjects (in vivo doses)
T1 sequence (P28223 whole entry): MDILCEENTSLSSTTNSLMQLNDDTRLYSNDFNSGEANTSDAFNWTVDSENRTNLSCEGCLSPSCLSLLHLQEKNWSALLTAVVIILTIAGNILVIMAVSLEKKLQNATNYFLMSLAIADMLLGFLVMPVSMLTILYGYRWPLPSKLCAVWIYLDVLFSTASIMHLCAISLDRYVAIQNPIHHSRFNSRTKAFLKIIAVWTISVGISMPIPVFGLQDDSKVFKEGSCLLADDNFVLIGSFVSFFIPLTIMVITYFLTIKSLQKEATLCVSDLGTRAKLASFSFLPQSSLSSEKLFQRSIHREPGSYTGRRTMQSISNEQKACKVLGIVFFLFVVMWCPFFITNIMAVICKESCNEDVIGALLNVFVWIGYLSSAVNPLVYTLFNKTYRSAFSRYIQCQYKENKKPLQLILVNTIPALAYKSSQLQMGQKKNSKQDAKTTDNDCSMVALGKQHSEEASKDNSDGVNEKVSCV

[1] = test system: head twitch response (HTR); type: in vivo, mice
Method: Male C57BL/6 mice (~7-9 weeks old) were used in these studies. Mice were housed 2 per cage under standard temperature- and humidity-controlled laboratory conditions with a 12-hour light/dark cycle. Mice had free access to food and water.
Both compounds were dissolved in saline vehicle at a dose volume of 10 mL/kg. Doses were corrected for salt form so that the dose administered represented free base.
Mice were randomly assigned to 1 of 6 treatment groups consisting of 2 subcutaneous injections (see Table 1), which were administered according to the schedule in FIG. 1. […] Behavior was videotaped by a camera (GoPro Hero 9) mounted above the testing chambers. Recorded video was uploaded for analysis of head twitch behavior. Number of head twitch responses (HTRs) was recorded for each animal for each 2-min bin. For each treatment group, the mean number of HTRs in each 2- or 10-min bin, and across the whole 30-min recording period, were analyzed.

[2] = Human plasma pharmacokinetic parameters of trazodone collected from the literature; type: in vivo; conditions: mean of literature values
[3] = cited from earlier work
[4] = Plasma protein binding, rapid equilibrium dialysis, human plasma; type: in vitro ADME
Method: (§1) A 1 mM stock solution of trazadone was prepared in DMSO and diluted 200-fold in mouse or human plasma to yield a final concentration of 5 μM. The final DMSO concentration was 0.5%. Rapid equilibrium dialysis (RED) was performed with a RED device containing a dialysis membrane with a molecular weight cut-off of 8,000 Daltons. Each dialysis insert contains two chambers. The red chamber is for plasma while the white chamber is for buffer.
(§2) For each dialysis insert, aliquots (200 μL) of positive control or test compound at 5 μM (n=2) were separately added to the plasma chamber and 350 μL of phosphate buffered saline (pH 7.4) was added to the buffer chamber. After sealing the RED device with an adhesive film, dialysis was performed in an incubator at 37° C. with shaking at 300 RPM for 4 hours. To assess recovery and stability, 50 μL aliquots of positive control and test compound were added to 96-deep well plates and quenched with 400 μL acetonitrile (for 0 min), while comparator aliquots were incubated at 37° C. for 4 hours along with the RED device.
(§3) Following dialysis, an aliquot of 50 μL was removed from each well (both plasma and buffer side) and diluted with an equal volume of the opposite matrix (dialyzed with the other matrix) to nullify the matrix effect. Similarly, 50 μL of buffer was added to recovery and stability samples. An aliquot of 100 μL was submitted for LC-MS/MS analysis. […]

in vivo = conditions: male, C57BL/6, mouse
Method: Male C57BL/6 mice, aged 8-12 weeks, were used in these studies. Mice were housed 4 per cage under standard temperature- and humidity-controlled laboratory conditions with a 12-hour light/dark cycle. Mice had free access to food and water but were fasted from 4 h prior to and until 2 h after dosing. Animals were randomly assigned to treatment groups.
Doses were corrected for salt form so that the dose administered represented free base.
Immediately after blood collection, plasma was harvested by centrifugation at 4,000 rpm for 10 min at 4° C. and samples were stored at −70±10° C. until bioanalysis. Following blood collection, animals were immediately sacrificed, the abdominal vena-cava was cut open, the whole body was perfused from the heart using 10 mL of normal saline, and brain samples were collected from all animals. After isolation, brain samples were rinsed three times in ice-cold normal saline (for 5-10 seconds/rinse using ~5-10 mL normal saline in a disposable petri dish for each rinse) and dried on blotting paper. Brain samples were homogenized using ice-cold phosphate-buffered saline (pH 7.4). Total homogenate volume was three times the tissue weight. All homogenates were stored at −70±10° C. until bioanalysis. For bioanalysis, 20 μL aliquots of plasma/brain study samples or spiked plasma/brain calibration standards were added to individual pre-labeled micro-centrifuge tubes followed by 200 μL of an internal standard solution (cetirizine, 50 ng/mL in acetonitrile) except for blanks, where 200 μL of acetonitrile was added. Samples were vortexed for 5 minutes and then centrifuged for 10 minutes at 4,000 rpm at 4° C. Following centrifugation, 200 μL of each clear supernatant was transferred to a 96-well plate and analyzed with a fit-for-purpose LC-MS/MS method, with authentic samples of each analyte used for calibration and identification.

[5] = Plasma protein binding, rapid equilibrium dialysis, mouse plasma; type: in vitro ADME
Method: as §1, §2, §3

COc1cc(CCN)c(OC)cc1Br [2C-B]
Typical Fully Psychedelic Dose Range (5-HT2A receptor; oral): 15-25, oral ~mg per ~70 kg human

CCc1cc(OC)c(CCN)cc1OC [2C-E, 2-(4-Ethyl-2,5-dimethoxyphenyl)ethanamine]
Typical Fully Psychedelic Dose Range (5-HT2A receptor; oral): 10-20, oral ~mg per ~70 kg human

COc1ccc2[nH]cc(CCN(C)C)c2c1 [5-MeO-DMT, 5-methoxy-N,N-dimethyltryptamine]
Typical Fully Psychedelic Dose Range (5-HT2A receptor; smoked): 5-10, smoked ~mg per ~70 kg human

CN(C)CCc1c[nH]c2ccccc12 [DMT, N,N-dimethyltryptamine]
Typical Fully Psychedelic Dose Range (5-HT2A receptor; smoked): 20-40, smoked ~mg per ~70 kg human

COc1cc(CC(C)N)c(OC)cc1C (stereo not shown) [DOM, 2,5-dimethoxy-4-methylamphetamine]
Typical Fully Psychedelic Dose Range (5-HT2A receptor; oral): 3-5, oral ~mg per ~70 kg human

CCN(CC)C(=O)[C@@H]1C=C2c3cccc4[nH]cc(c34)C[C@H]2N(C)C1 [LSD, lysergic acid diethylamide]
Typical Fully Psychedelic Dose Range (5-HT2A receptor; oral): 0.1-0.2, oral ~mg per ~70 kg human

COc1cc(CCN)cc(OC)c1OC [mescaline]
Typical Fully Psychedelic Dose Range (5-HT2A receptor; oral): 200-400, oral ~mg per ~70 kg human

CN(C)CCc1c[nH]c2cccc(O)c12 [psilocin]
Typical Fully Psychedelic Dose Range (5-HT2A receptor; oral): 15-25, oral ~mg per ~70 kg human

O=c1n(CCCN2CCN(c3cccc(Cl)c3)CC2)nc2ccccn12 [trazodone]
HTR reversal quantified in 10-minute bins ([1]; 0-10, 10-20, 20-30 min post trazodone, even at the lowest dose): rapid and robust HTR reversal effect
onset of reversal of DOPR HTR ([1]; all trazodone doses tested, SC, 45 min after DOPR 3.2 mg/kg SC): ≤ 2 min
persistence of HTR reversal effect ([1]; all trazodone doses tested, limited by recording period): ≥ 30 min
reversal of DOPR-induced HTR in the 20-30-minute time bin ([1]; lowest dose of trazodone (1 mg/kg SC)): full reversal
minimum efficacious concentration (MEC) in plasma for reversal ([1]; mice, total plasma concentration 25 min after 1 mg/kg SC trazodone): ≤ 369 ng/mL
reversal of HTR induced by DOPR ([1]; trazodone 1, 1.8, 3.2 or 10 mg/kg SC 45 min after DOPR 3.2 mg/kg SC, 30-min recording, all doses incl. lowest): fully reversed
Cmax (ng/mL per mg dosed) ([2]; PO): 17.2 ng/mL per mg dosed
half-life ([2]; human, plasma, IV): 6.3 h
Tmax ([2]; human, plasma, PO): 1.5 h
half-life ([2]; human, plasma, PO): 9.1 h
T1/2 ([3]; 25 mg IV, Greenblatt, 1987): 5.3 h
Cmax (ng/mL per mg dosed) ([3]; 50 mg PC, Greenblatt, 1987): 18.8 ng/mL per mg dosed
T1/2 ([3]; 50 mg PC, Greenblatt, 1987): 5.2 h
Tmax ([3]; 50 mg PC, Greenblatt, 1987): 1.02 h
Cmax (ng/mL per mg dosed) ([3]; 50 mg PO, Gammans, 1984): 17.16 ng/mL per mg dosed
T1/2 ([3]; 50 mg PO, Gammans, 1984): 13.3 h
Tmax ([3]; 50 mg PO, Gammans, 1984): 0.9 h
T1/2 ([3]; 90 mg IV, Nilsen, 1992): 7.3 h
Cmax (ng/mL per mg dosed) ([3]; 100 mg PO, Bayer, 1983): 16 ng/mL per mg dosed
T1/2 ([3]; 100 mg PO, Bayer, 1983): 6.0 h
Tmax ([3]; 100 mg PO, Bayer, 1983): 2 h
Cmax (ng/mL per mg dosed) ([3]; 100 mg PO, Kale, 2015): 15.47 ng/mL per mg dosed
T1/2 ([3]; 100 mg PO, Kale, 2015): 13.1 h
Tmax ([3]; 100 mg PO, Kale, 2015): 2.25 h
Cmax (ng/mL per mg dosed) ([3]; 100 mg PO, Nilsen, 1992): 18.8 ng/mL per mg dosed
T1/2 ([3]; 100 mg PO, Nilsen, 1992): 7.8 h
Tmax ([3]; 100 mg PO, Nilsen, 1992): 1.34 h
half-life ([3]; human): 6 to 12 h
bound fraction in plasma ([4]; 5 μM, 4 hours, 37° C.): 90.2%
fraction unbound at 4 h, 5 μM ([4]; pH 7.4, 37° C.): 0.098
concentration at 5 min (in vivo; 1 mg/kg): 800 ng/mL and 700 ng/g
concentration at 15 min (in vivo; 1 mg/kg): 504 ng/mL and 584 ng/g
concentration at 25 min (in vivo; 1 mg/kg): 369 ng/mL and 255 ng/g
concentration at 5 min (in vivo; 3.2 mg/kg): 1480 ng/mL and 1750 ng/g
concentration at 15 min (in vivo; 3.2 mg/kg): 1350 ng/mL and 1600 ng/g
concentration at 25 min (in vivo; 3.2 mg/kg): 1020 ng/mL and 674 ng/g
concentration at 5 min (in vivo; 10 mg/kg): 3490 ng/mL and 7930 ng/g
concentration at 15 min (in vivo; 10 mg/kg): 2870 ng/mL and 5100 ng/g
concentration at 25 min (in vivo; 10 mg/kg): 1910 ng/mL and 3580 ng/g
bound fraction in plasma ([5]; 5 μM, 4 hours, 37° C.): 94.4%
fraction unbound at 4 h, 5 μM ([5]; pH 7.4, 37° C.): 0.056
